{"source": "patent US9239331B2", "about": "“Method for predicting the response to HER2-directed therapy” (Ventana Medical Systems, Inc., priority 2002, dated 2016)", "test_system": "breast cancer patients", "assay": "Patient response in breast cancer tissue microarray cohort: chemotherapy together with HERCEPTIN®, response from case histories at last follow-up", "format": "in vivo, human", "settings": "treatment following surgery (followed by Herceptin ®)", "experimental": "Immunohistochemistry for detecting and measuring predictive biomarker expression, activation or both was performed as follows. HER2/neu, EGFR, HER3, IGFR, TGF-α, Heregulin (NDF), p-ERK, p-AKT, and p-S6 ribosomal protein or phosphorylation levels were quantified using alkaline phosphatase or peroxidase techniques and microscope-based image analysis of immunohistochemically stained slides (as described in Bacus et al., 1997, Analyt. Quant. Cytol. Histol. 19: 316-328). Quantification was by means of a CAS 200 image analyzer, as previously described (Bacus & Ruby, 1993, Pathol Annu, 28: 179-204). For the purpose of the analysis, tumors were classified as negative or positive for each antibody based upon the level of staining. Statistical analysis was performed using Systat to quantify frequencies and calculate Pearson Chi-squared tests of significance for interactions between variables. In all cases, the p value refers to the significance of the deviation of the distribution of samples from what would be expected based upon the overall population distribution. Comparisons were performed only on samples for which all relevant data were available. […] All patients had received post-surgical radiotherapy. The tissue samples in the array were taken before treatment. HER2/neu expression had been determined by using the […] system (DAKO, Carpinteria, Calif.) on the original biopsies for all patients. Patient response was based upon the case histories at last follow-up as decided by an independent pathologist provided by Clinomics."}
{"molecule": "CC(=O)O[C@H]1C(=O)[C@@]2(C)[C@H]([C@H](OC(=O)c3ccccc3)[C@]3(O)C[C@H](OC(=O)[C@H](O)[C@@H](NC(=O)c4ccccc4)c4ccccc4)C(C)=C1C3(C)C)[C@]1(OC(C)=O)CO[C@@H]1C[C@@H]2O", "note": "[Paclitaxel]", "values": [{"measurement": "disease-free or stable disease", "result": 100, "unit": "%"}, {"measurement": "relapse", "result": 0, "unit": "%"}]}
{"molecule": "COc1cccc2c1C(=O)c1c(O)c3c(c(O)c1C2=O)C[C@@](O)(C(=O)CO)C[C@@H]3O[C@H]1C[C@H](N)[C@H](O)[C@H](C)O1", "note": "[Doxorubicin]", "values": [{"measurement": "disease-free or stable disease", "result": 2, "unit": "%"}, {"measurement": "relapse", "result": 98, "unit": "%"}]}
